Experimental data published in ChEMBL document CHEMBL1133961, “Chemo-enzymatic synthesis of the Galili epitope Gal(alpha)(1-->3)Galbeta(1-->4)GlcNAc on a homogeneously soluble PEG polymer by a multi-enzyme system” (Bioorg Med Chem Lett, 2001).

Legend:
[1] = (§1) Kinetic data for inhibition of Beta-1,4-GalT by free N-acetyl-glucosamine; design: species or system Homo sapiens
[2] = (§2) Kinetic data for inhibition of Beta-1,4-GalT by polymer-supported Nacetylglucosamine.; design: species or system Homo sapiens
Homo sapiens = species on record: Homo sapiens; test: as §1
[3] = as §1; conditions: human
[4] = as §2; conditions: human

Ki [1]: 14.3 mM | Ki [2]: 0.54 mM | Km (Homo sapiens): 34.6 mM | Vmax [3]: 2.62 U mg-1 | Km [4]: 10.5 mM | Vmax [4]: 4.73 U mg-1
Compound: CC(=O)N[C@@H]1[C@@H](O)[C@H](O)[C@@H](CO)O[C@H]1O [N-ACETYLGLUCOSAMINE]
